Laboratory results taken from patent US10344060B2 (priority 2013, dated 2019).
Like-named read-outs stand apart in the source and are kept apart here.

Key:
Assay in all cases: cell-based
hNav1.4 [1] = target: T1, hNav1.4 (Homo sapiens, UniProt P35499); type: cell-based; conditions: ratio of IonWorks Quattro IC50 values; Table 9
hNav1.5 = hNav1.5 (Homo sapiens, UniProt Q14524); conditions: for Nav1.5/Nav1.7: ratio of PX tonic IC50 values; for IC50: read-out: PX hNav1.5 Tonic IC50
hNav1.4 [2] = target: T1, hNav1.4; type: cell-based; conditions: for Nav1.4/Nav1.7: ratio of PX tonic IC50 values; for IC50: read-out: PX hNav1.4 Tonic IC50
hNav1.7 = hNav1.7 (Homo sapiens, UniProt Q15858); type: cell-based; conditions: for IC50: read-out: PX hNav1.7 Tonic IC50
Chain of hNav1.7 (Q15858 whole entry): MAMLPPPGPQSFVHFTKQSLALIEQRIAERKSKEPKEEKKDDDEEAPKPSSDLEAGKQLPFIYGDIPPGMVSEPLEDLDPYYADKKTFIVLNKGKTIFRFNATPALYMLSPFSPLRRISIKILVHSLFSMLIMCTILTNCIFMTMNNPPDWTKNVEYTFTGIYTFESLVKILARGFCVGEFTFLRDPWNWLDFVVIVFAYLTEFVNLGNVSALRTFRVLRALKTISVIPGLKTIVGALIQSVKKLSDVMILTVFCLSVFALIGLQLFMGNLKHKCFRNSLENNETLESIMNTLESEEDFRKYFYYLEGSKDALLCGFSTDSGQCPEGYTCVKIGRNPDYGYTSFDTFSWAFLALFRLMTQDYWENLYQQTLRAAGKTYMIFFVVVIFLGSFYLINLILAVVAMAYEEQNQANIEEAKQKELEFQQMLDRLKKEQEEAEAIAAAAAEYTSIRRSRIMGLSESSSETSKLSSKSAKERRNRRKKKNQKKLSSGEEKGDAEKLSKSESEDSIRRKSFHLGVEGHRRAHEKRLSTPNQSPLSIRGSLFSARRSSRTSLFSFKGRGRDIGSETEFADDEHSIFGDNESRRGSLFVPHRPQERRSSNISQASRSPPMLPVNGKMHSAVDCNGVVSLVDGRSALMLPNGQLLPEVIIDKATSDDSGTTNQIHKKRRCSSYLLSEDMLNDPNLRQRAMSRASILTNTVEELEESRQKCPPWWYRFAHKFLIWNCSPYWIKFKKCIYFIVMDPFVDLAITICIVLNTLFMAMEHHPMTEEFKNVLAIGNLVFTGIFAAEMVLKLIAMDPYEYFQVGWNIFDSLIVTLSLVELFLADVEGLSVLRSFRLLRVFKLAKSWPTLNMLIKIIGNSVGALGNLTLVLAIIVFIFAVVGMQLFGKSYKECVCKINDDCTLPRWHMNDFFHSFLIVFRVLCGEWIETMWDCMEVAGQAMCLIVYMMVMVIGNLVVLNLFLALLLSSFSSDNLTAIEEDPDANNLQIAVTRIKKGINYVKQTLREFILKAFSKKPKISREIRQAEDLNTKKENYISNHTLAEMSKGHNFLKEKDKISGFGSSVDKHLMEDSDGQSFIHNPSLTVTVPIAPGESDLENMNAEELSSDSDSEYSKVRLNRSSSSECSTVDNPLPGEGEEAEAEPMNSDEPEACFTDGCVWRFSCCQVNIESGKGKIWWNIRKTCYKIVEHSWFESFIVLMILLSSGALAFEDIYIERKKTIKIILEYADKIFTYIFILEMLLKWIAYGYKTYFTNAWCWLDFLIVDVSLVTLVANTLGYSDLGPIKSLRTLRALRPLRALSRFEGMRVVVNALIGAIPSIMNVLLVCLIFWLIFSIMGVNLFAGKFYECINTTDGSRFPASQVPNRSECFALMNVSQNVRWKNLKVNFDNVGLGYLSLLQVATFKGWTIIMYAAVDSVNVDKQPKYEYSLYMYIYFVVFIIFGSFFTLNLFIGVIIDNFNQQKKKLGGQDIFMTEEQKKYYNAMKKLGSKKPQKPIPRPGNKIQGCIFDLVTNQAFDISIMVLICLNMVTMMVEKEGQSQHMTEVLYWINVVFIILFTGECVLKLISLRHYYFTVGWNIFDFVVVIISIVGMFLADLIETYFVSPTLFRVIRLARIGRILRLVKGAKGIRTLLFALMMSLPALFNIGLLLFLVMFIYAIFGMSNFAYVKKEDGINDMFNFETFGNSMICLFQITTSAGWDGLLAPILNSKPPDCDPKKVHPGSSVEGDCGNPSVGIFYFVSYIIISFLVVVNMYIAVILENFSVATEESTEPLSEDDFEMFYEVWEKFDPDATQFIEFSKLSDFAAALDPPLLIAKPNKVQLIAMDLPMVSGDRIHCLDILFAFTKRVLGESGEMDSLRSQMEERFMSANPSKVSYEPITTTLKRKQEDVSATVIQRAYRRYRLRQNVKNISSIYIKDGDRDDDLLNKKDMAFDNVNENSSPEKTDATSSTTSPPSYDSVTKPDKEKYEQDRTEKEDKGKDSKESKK

hNav1.6 = hNav1.6 (Homo sapiens, UniProt Q9UQD0); type: cell-based; conditions: Table 15; for Nav1.6/Nav1.7: ratio of PX tonic IC50 values
Chain of hNav1.6 (Q9UQD0 whole entry): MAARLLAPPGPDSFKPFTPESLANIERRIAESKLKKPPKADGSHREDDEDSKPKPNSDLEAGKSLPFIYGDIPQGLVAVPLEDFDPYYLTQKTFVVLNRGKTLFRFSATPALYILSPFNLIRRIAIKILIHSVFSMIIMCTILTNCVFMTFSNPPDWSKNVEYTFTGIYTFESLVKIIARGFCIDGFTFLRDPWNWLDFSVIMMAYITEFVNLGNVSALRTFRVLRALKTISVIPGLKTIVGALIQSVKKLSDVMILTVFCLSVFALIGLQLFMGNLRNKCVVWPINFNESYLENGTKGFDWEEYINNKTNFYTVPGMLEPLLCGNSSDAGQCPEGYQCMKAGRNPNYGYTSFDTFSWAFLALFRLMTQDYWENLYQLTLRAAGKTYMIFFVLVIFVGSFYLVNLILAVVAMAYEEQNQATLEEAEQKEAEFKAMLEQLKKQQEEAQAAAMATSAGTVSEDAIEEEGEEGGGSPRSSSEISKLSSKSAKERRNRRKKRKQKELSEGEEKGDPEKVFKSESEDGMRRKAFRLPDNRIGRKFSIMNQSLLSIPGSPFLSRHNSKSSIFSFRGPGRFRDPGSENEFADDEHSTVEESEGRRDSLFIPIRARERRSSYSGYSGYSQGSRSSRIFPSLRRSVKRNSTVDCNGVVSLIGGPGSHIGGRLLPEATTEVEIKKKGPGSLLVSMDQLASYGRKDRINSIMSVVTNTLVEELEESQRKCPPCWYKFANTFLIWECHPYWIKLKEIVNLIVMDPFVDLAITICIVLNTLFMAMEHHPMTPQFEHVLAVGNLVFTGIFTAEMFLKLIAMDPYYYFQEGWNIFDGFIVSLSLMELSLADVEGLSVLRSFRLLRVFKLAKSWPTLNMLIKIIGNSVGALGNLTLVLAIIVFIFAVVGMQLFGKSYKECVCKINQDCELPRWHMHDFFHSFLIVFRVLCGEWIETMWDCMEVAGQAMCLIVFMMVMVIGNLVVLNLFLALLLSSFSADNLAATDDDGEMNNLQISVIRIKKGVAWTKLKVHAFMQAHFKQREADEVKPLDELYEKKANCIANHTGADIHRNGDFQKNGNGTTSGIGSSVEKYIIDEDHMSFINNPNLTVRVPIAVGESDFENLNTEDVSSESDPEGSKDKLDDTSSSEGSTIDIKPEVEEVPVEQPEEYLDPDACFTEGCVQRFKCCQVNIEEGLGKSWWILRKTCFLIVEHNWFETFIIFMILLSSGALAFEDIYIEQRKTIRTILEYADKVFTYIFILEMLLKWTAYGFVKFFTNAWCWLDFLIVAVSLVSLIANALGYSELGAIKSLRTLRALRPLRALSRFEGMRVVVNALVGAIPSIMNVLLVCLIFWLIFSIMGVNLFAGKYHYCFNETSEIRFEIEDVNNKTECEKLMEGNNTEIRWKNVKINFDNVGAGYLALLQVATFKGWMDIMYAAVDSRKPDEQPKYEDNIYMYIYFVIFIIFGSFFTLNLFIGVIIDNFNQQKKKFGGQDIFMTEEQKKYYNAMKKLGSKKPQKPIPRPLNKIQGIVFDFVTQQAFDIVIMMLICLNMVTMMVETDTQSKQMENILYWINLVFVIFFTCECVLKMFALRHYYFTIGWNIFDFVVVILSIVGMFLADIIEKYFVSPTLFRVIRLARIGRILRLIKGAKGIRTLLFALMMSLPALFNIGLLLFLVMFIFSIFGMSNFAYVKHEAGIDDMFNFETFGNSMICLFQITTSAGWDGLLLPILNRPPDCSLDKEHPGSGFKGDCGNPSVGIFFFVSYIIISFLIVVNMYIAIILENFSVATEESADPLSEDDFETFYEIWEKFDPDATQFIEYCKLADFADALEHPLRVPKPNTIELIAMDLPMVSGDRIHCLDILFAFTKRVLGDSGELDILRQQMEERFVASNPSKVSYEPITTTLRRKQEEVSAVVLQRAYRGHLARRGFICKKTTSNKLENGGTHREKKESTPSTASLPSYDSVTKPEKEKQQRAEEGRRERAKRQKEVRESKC

[3] = Table 12, PatchXpress, tonic block
[4] = ratio of PX tonic IC50 values, Table 11

`C#CC[C@@H]1NC(=O)[C@H](CCCNC(=N)N)NC(=O)[C@H](CCCCN)NC(=O)[C@H](CO)NC(=O)[C@H](CC(=O)O)NC(=O)[C@@H]2CSSC[C@@H]3NC(=O)[C@H](CCCNC(=N)N)NC(=O)[C@H](CC(C)C)NC(=O)CNC(=O)[C@H](CCC(=O)O)NC(=O)[C@H](CSSC[C@H](NC(=O)[C@@H](N)Cc4ccc(O)cc4)C(=O)N[C@@H](CCC(N)=O)C(=O)N[C@@H](CCCCN)C(=O)N[C@@H](Cc4c[nH]c5ccccc45)C(=O)N[C@@H](CCCC)C(=O)N[C@@H](Cc4c[nH]c5ccccc45)C(=O)N[C@@H]([C@@H](C)O)C(=O)N2)NC(=O)[C@H](CSSC[C@@H](C(=O)N[C@@H](CCCNC(=N)N)C(=O)N[C@@H](CCCCN)C(=O)N[C@H](C(=O)N[C@H](C(N)=O)[C@@H](C)CC)[C@@H](C)CC)NC(=O)[C@H](Cc2c[nH]c4ccccc24)NC(=O)[C@H](CC(C)C)NC(=O)[C@H](CCCCN)NC3=O)NC1=O` [compound 283] showed a Nav1.4/Nav1.7 (hNav1.4 [1]) of 1, a Nav1.5/Nav1.7 (hNav1.5; Table 12) of 2090 and a Nav1.4/Nav1.7 (hNav1.4 [2]; Table 12) of 17.
`C#CC[C@H](N)C(=O)N[C@@H](Cc1ccc(O)cc1)C(=O)N[C@H]1CSSC[C@@H]2NC(=O)[C@@H]3CSSC[C@@H](C(=O)N[C@@H](CCCNC(=N)N)C(=O)N[C@@H](CCCCN)C(=O)N[C@H](C(=O)N[C@@H](Cc4c[nH]c5ccccc45)C(N)=O)[C@@H](C)CC)NC(=O)[C@H](Cc4c[nH]c5ccccc45)NC(=O)[C@H](CC(C)C)NC(=O)[C@H](CCCCN)NC(=O)[C@H](CSSC[C@H](NC(=O)[C@H]([C@@H](C)O)NC(=O)[C@H](Cc4c[nH]c5ccccc45)NC(=O)[C@H](CCCC)NC(=O)[C@H](Cc4c[nH]c5ccccc45)NC(=O)[C@H](CCCCN)NC(=O)[C@H](CCC(N)=O)NC1=O)C(=O)N[C@@H](CC(=O)O)C(=O)N[C@@H](CO)C(=O)N[C@@H](CCCCN)C(=O)N[C@@H](CCCNC(=N)N)C(=O)N[C@@H](C)C(=O)N3)NC(=O)[C@H](CCCNC(=N)N)NC(=O)[C@H](CC(C)C)NC(=O)CNC(=O)[C@H](CCC(=O)O)NC2=O` [compound 296] gave an IC50 (hNav1.7; [3]) of 4.79 nM, an IC50 (hNav1.5; [3]) of 2290 nM and a Nav1.5/Nav1.7 (hNav1.5; Table 12) of 479. The IC50 (hNav1.4 [2]; [3]) was 37 nM and the Nav1.4/Nav1.7 (hNav1.4 [2]; Table 12) was 8.
`C#CC[C@H](N)C(=O)NCCOCCOCCOCCOCCC(=O)NCCCC[C@@H]1NC(=O)[C@H](CCCNC(=N)N)NC(=O)[C@H](CCCCN)NC(=O)[C@H](CO)NC(=O)[C@H](CC(=O)O)NC(=O)[C@@H]2CSSC[C@@H]3NC(=O)[C@H](CCCNC(=N)N)NC(=O)[C@H](CC(C)C)NC(=O)CNC(=O)[C@H](CCC(=O)O)NC(=O)[C@H](CSSC[C@H](NC(=O)[C@H](Cc4ccc(O)cc4)NC(=O)[C@@H](N)CC#N)C(=O)N[C@@H](CCC(N)=O)C(=O)N[C@@H](CCCCN)C(=O)N[C@@H](Cc4c[nH]c5ccccc45)C(=O)N[C@@H](CCCC)C(=O)N[C@@H](Cc4c[nH]c5ccccc45)C(=O)N[C@@H]([C@@H](C)O)C(=O)N2)NC(=O)[C@H](CSSC[C@@H](C(=O)N[C@@H](CCCNC(=N)N)C(=O)N[C@@H](CCCCN)C(=O)N[C@H](C(=O)N[C@H](C(N)=O)[C@@H](C)CC)[C@@H](C)CC)NC(=O)[C@H](Cc2c[nH]c4ccccc24)NC(=O)[C@H](CC(C)C)NC(=O)[C@H](CCCCN)NC3=O)NC1=O` [compound 380] showed an IC50 (hNav1.7; [3]) of 0.845 nM, a Nav1.5/Nav1.7 (hNav1.5; Table 12) of 0 and a Nav1.4/Nav1.7 (hNav1.4 [2]; Table 12) of 0.
For `CCC[C@H](N)C(=O)N[C@@H](Cc1ccc(O)cc1)C(=O)N[C@H]1CSSC[C@@H]2NC(=O)[C@@H]3CSSC[C@@H](C(=O)N[C@@H](CCCNC(=N)N)C(=O)N[C@@H](CCCCN)C(=O)N[C@H](C(=O)N[C@H](C(N)=O)[C@@H](C)CC)[C@@H](C)CC)NC(=O)[C@H](Cc4c[nH]c5ccccc45)NC(=O)[C@H](CC(C)C)NC(=O)[C@H](CCCCN)NC(=O)[C@H](CSSC[C@H](NC(=O)[C@H]([C@@H](C)O)NC(=O)[C@H](Cc4c[nH]c5ccccc45)NC(=O)[C@H](CC(C)C)NC(=O)[C@H](Cc4c[nH]c5ccccc45)NC(=O)[C@H](CCCCN)NC(=O)[C@H](CCC(N)=O)NC1=O)C(=O)N[C@@H](CC(=O)O)C(=O)N[C@@H](CO)C(=O)N[C@@H](CCCCN)C(=O)N[C@@H](CCCNC(=N)N)C(=O)N[C@@H](CCCCNC(=O)[C@@H](N)Cc1cn(CCOCCOCCOCCOCCOCCOCCOCCOCCOCCOCCN)nn1)C(=O)N3)NC(=O)[C@H](CCCNC(=N)N)NC(=O)[C@H](CC(C)C)NC(=O)CNC(=O)[C@H](CCC(=O)O)NC2=O` [compound 446], the IC50 (hNav1.7) was 11.6 nM, the Nav1.5/Nav1.7 (hNav1.5; Table 13) was 207 and the IC50 (hNav1.5) was 2410 nM. The Nav1.4/Nav1.7 (hNav1.4 [2]; Table 13) was 11 and the IC50 (hNav1.4 [2]) was 128 nM.
With `C#CC[C@H](N)C(=O)N[C@@H](Cc1ccc(O)cc1)C(=O)N[C@H]1CSSC[C@@H]2NC(=O)[C@@H]3CSSC[C@@H](C(=O)N[C@@H](CCCNC(=N)N)C(=O)N[C@@H](CCCCN)C(=O)N[C@@H](CCC(N)=O)C(=O)N[C@H](C(N)=O)[C@@H](C)CC)NC(=O)[C@H](Cc4c[nH]c5ccccc45)NC(=O)[C@H](CC(C)C)NC(=O)[C@H](CCCCN)NC(=O)[C@H](CSSC[C@H](NC(=O)[C@H]([C@@H](C)O)NC(=O)[C@H](Cc4c[nH]c5ccccc45)NC(=O)[C@H](CCCC)NC(=O)[C@H](Cc4c[nH]c5ccccc45)NC(=O)[C@H](CCCCN)NC(=O)[C@H](CCC(N)=O)NC1=O)C(=O)N[C@@H](CC(=O)O)C(=O)N[C@@H](CO)C(=O)N[C@@H](CCCCN)C(=O)N[C@@H](CCCNC(=N)N)C(=O)N[C@@H](C)C(=O)N3)NC(=O)[C@H](CCCNC(=N)N)NC(=O)[C@H](CC(C)C)NC(=O)CNC(=O)[C@H](CCC(=O)O)NC2=O` [compound 665] the IC50 (hNav1.7; [3]) was 0.912 nM, the IC50 (hNav1.5; [3]) was 3220 nM and the Nav1.5/Nav1.7 (hNav1.5; Table 12) was 3529. It also gave an IC50 (hNav1.4 [2]; [3]) of 10.7 nM and a Nav1.4/Nav1.7 (hNav1.4 [2]; Table 12) of 12.
`CCCC[C@@H]1NC(=O)[C@H](Cc2c[nH]c3ccccc23)NC(=O)[C@H](CCCCN)NC(=O)[C@H](CCC(N)=O)NC(=O)[C@@H](NC(=O)[C@H](Cc2ccc(O)cc2)NC(=O)[C@@H](N)CCC(=O)O)CSSC[C@@H]2NC(=O)[C@@H]3CSSC[C@@H](C(=O)N[C@@H](CCCNC(=N)N)C(=O)N[C@@H](CCCCN)C(=O)N[C@@H](CCC(=O)O)C(=O)N[C@H](C(N)=O)[C@@H](C)CC)NC(=O)[C@H](Cc4c[nH]c5ccccc45)NC(=O)[C@H](CC(C)C)NC(=O)[C@H](CCCCN)NC(=O)[C@H](CSSC[C@H](NC(=O)[C@H]([C@@H](C)O)NC(=O)[C@H](Cc4c[nH]c5ccccc45)NC1=O)C(=O)N[C@@H](CC(=O)O)C(=O)N[C@@H](CO)C(=O)N[C@@H](CCCCN)C(=O)N[C@@H](CCCNC(=N)N)C(=O)N[C@@H](C)C(=O)N3)NC(=O)[C@H](CCCNC(=N)N)NC(=O)[C@H](CC(C)C)NC(=O)CNC(=O)[C@H](CCC(=O)O)NC2=O` [compound 708] gave an IC50 (hNav1.7; PatchXpress, tonic, Table 11) of 0.765 nM, a Nav1.4/Nav1.7 (hNav1.7; [4]) of 130 and a Nav1.5/Nav1.7 (hNav1.7; [4]) of 9941. For the same compound, the IC50 (hNav1.5; PatchXpress, tonic, Table 11) was 7600 nM, the IC50 (hNav1.4 [2]; PatchXpress, tonic, Table 11) was 99.2 nM and the Nav1.6/Nav1.7 (hNav1.6) was 682. It also gave an IC50 (hNav1.6; read-out: PX hNav1.6 Tonic IC50) of 522 nM.
With `C#CC[C@H](N)C(=O)N[C@@H](Cc1ccc(O)cc1)C(=O)N[C@H]1CSSC[C@@H]2NC(=O)[C@@H]3CSSC[C@@H](C(=O)N[C@@H](CCCNC(=N)N)C(=O)N[C@@H](CCCCN)C(=O)N[C@@H](CCC(=O)O)C(=O)N[C@H](C(N)=O)[C@@H](C)CC)NC(=O)[C@H](Cc4c[nH]c5ccccc45)NC(=O)[C@H](CC(C)C)NC(=O)[C@H](CCCCN)NC(=O)[C@H](CSSC[C@H](NC(=O)[C@H]([C@@H](C)O)NC(=O)[C@H](Cc4c[nH]c5ccccc45)NC(=O)[C@H](CCCC)NC(=O)[C@H](Cc4c[nH]c5ccccc45)NC(=O)[C@H](CCCCN)NC(=O)[C@H](CCC(N)=O)NC1=O)C(=O)N[C@@H](CC(=O)O)C(=O)N[C@@H](CCC(=O)O)C(=O)N[C@@H](CCCCN)C(=O)N[C@@H](CCCNC(=N)N)C(=O)N[C@@H](C)C(=O)N3)NC(=O)[C@H](CCCNC(=N)N)NC(=O)[C@H](CC(C)C)NC(=O)CNC(=O)[C@H](CCC(=O)O)NC2=O` [compound 714] the Nav1.5/Nav1.7 (hNav1.5; Table 12) was >6341, the Nav1.4/Nav1.7 (hNav1.4 [2]; Table 12) was 241 and the Nav1.6/Nav1.7 (hNav1.6) was 737.
`CCCC[C@@H]1NC(=O)[C@H](Cc2c[nH]c3ccccc23)NC(=O)[C@H](CCCCN)NC(=O)[C@H](CCC(N)=O)NC(=O)[C@@H](NC(=O)[C@H](Cc2ccc(O)cc2)NC(=O)[C@@H](N)Cc2cn(CCCCCCNC(=O)CCOCCOCCOCCOCCNC(=O)CCCC[C@@H]3SC[C@@H]4NC(=O)N[C@@H]43)nn2)CSSC[C@@H]2NC(=O)[C@@H]3CSSC[C@@H](C(=O)N[C@@H](CCCNC(=N)N)C(=O)N[C@@H](CCCCN)C(=O)N[C@H](C(=O)N[C@H](C(N)=O)[C@@H](C)CC)[C@@H](C)CC)NC(=O)[C@H](Cc4c[nH]c5ccccc45)NC(=O)[C@H](CC(C)C)NC(=O)[C@H](CCCCN)NC(=O)[C@H](CSSC[C@H](NC(=O)[C@H]([C@@H](C)O)NC(=O)[C@H](Cc4c[nH]c5ccccc45)NC1=O)C(=O)N[C@@H](CC(=O)O)C(=O)N[C@@H](CO)C(=O)N[C@@H](CCCCN)C(=O)N[C@@H](CCCNC(=N)N)C(=O)N[C@@H](C)C(=O)N3)NC(=O)[C@H](CCCNC(=N)N)NC(=O)[C@H](CC(C)C)NC(=O)CNC(=O)[C@H](CCC(=O)O)NC2=O` [compound 898] showed an IC50 (hNav1.7) of 2.48 nM, a Nav1.5/Nav1.7 (hNav1.5; Table 13) of 2067 and an IC50 (hNav1.5) of 5130 nM. For the same compound, the Nav1.4/Nav1.7 (hNav1.4 [2]; Table 13) was 6 and the IC50 (hNav1.4 [2]) was 15.5 nM.
